Results reported in ChEMBL document CHEMBL5505979, “Novel aminothiazoximone-corbelled ethoxycarbonylpyrimidones with antibiofilm activity to conquer Gram-negative bacteria through potential multitargeting effects” (Eur J Med Chem, 2024).
Values after ≈ are worked out from the molar mass of the structure shown.

Key:
Type in all cases: functional
Staphylococcus aureus [1] = test: Anti-bacterial activity against methicillin-resistant Staphylococcus aureus ATCC 43300 assessed as inhibition of bacterial growth; details: Staphylococcus aureus, ATCC 43300; read-out: MIC
Klebsiella pneumoniae = test: Anti-bacterial activity against Klebsiella pneumoniae KPN325 assessed as inhibition of bacterial growth; details: Klebsiella pneumoniae, KPN325; read-out: MIC
Pseudomonas aeruginosa [2] = test: Anti-bacterial activity against Pseudomonas aeruginosa CMCC (B) 10104 assessed as inhibition of bacterial growth; details: Pseudomonas aeruginosa, CMCC (B) 10104; read-out: MIC
Staphylococcus aureus [3] = test: Anti-bacterial activity against methicillin-resistant Staphylococcus aureus N315 assessed as inhibition of bacterial growth; details: Staphylococcus aureus, N315; read-out: MIC
Staphylococcus aureus [4] = test: Anti-bacterial activity against Staphylococcus aureus ATCC 29213 assessed as inhibition of bacterial growth; details: Staphylococcus aureus, ATCC 29213; read-out: MIC
Staphylococcus aureus [5] = test: Anti-bacterial activity against Staphylococcus aureus CMCC (B) 26001 assessed as inhibition of bacterial growth
Candida albicans [6] = test: Anti-fungal activity against Candida albicans assessed as inhibition of fungal growth; details: Candida albicans; read-out: MIC
Pseudomonas aeruginosa [7] = test: Anti-bacterial activity against Pseudomonas aeruginosa ST235 assessed as inhibition of bacterial growth; details: Pseudomonas aeruginosa, ST235; read-out: MIC
Candida albicans [8] = test: Anti-fungal activity against Candida albicans 90023 assessed as inhibition of fungal growth
Staphylococcus aureus [9] = test: Anti-bacterial activity against Staphylococcus aureus ATCC 12600 assessed as inhibition of bacterial growth; details: Staphylococcus aureus, ATCC 12600; read-out: MIC
Candida tropicalis = test: Anti-fungal activity against Candida tropicalis assessed as inhibition of fungal growth; details: Candida tropicalis; read-out: MIC
Escherichia coli [10] = test: Anti-bacterial activity against Escherichia coli JM109 assessed as inhibition of bacterial growth
Acinetobacter baumannii = test: Anti-bacterial activity against Acinetobacter baumannii R674 assessed as inhibition of bacterial growth
Pseudomonas aeruginosa [11] = test: Anti-bacterial activity against Pseudomonas aeruginosa ATCC 27853 assessed as inhibition of bacterial growth; details: Pseudomonas aeruginosa, ATCC 27853; read-out: MIC
Staphylococcus aureus [12] = test: Anti-bacterial activity against Staphylococcus aureus ATCC 25923 assessed as inhibition of bacterial growth; details: Staphylococcus aureus, ATCC 25923; read-out: MIC
Enterococcus faecalis = test: Anti-bacterial activity against Enterococcus faecalis V583 assessed as inhibition of bacterial growth
Staphylococcus aureus [13] = test: Anti-bacterial activity against Staphylococcus aureus ATCC 1708 assessed as inhibition of bacterial growth; details: Staphylococcus aureus, ATCC 1708; read-out: MIC
Candida parapsilosis = test: Anti-fungal activity against Candida parapsilosis assessed as inhibition of fungal growth; details: Lodderomyces parapsilosis; read-out: MIC
Staphylococcus aureus [14] = test: Anti-bacterial activity against Staphylococcus aureus CMCC (B) 26003 assessed as inhibition of bacterial growth
Staphylococcus aureus [15] = test: Anti-bacterial activity against Staphylococcus aureus ATCC 6538 assessed as inhibition of bacterial growth
Pseudomonas aeruginosa [16] = test: Anti-bacterial activity against Pseudomonas aeruginosa ATCC 15442 assessed as inhibition of bacterial growth; details: Pseudomonas aeruginosa, ATCC 15442; read-out: MIC
Pseudomonas aeruginosa [17] = test: Anti-bacterial activity against Pseudomonas aeruginosa ATCC 9027 assessed as inhibition of bacterial growth
Escherichia coli [18] = test: Anti-bacterial activity against Escherichia coli ATCC 25922 assessed as inhibition of bacterial growth

Compound	MIC (Staphylococcus aureus [1])	MIC (Klebsiella pneumoniae)	MIC (Pseudomonas aeruginosa [2])	MIC (Staphylococcus aureus [3])	MIC (Staphylococcus aureus [4])	MIC (Staphylococcus aureus [5])	MIC (Candida albicans [6])	MIC (Pseudomonas aeruginosa [7])	MIC (Candida albicans [8])	MIC (Staphylococcus aureus [9])	MIC (Candida tropicalis)	MIC (Escherichia coli [10])	MIC (Acinetobacter baumannii)	MIC (Pseudomonas aeruginosa [11])	MIC (Staphylococcus aureus [12])	MIC (Enterococcus faecalis)	MIC (Staphylococcus aureus [13])	MIC (Candida parapsilosis)	MIC (Staphylococcus aureus [14])	MIC (Staphylococcus aureus [15])	further results
CCCCc1nc(Cl)c(C2NC(=O)NC(CN3CCN(CC(=O)c4ccccc4)CC3)=C2C(=O)OCC)[nH]1 (configuration not stated)	59 µM (≈ 32 µg/mL)	236 µM (≈ 128 µg/mL)	118 µM (≈ 64.1 µg/mL)	236 µM (≈ 128 µg/mL)	59 µM (≈ 32 µg/mL)	59 µM (≈ 32 µg/mL)	472 µM (≈ 256 µg/mL)	118 µM (≈ 64.1 µg/mL)	15 µM (≈ 8.15 µg/mL)	236 µM (≈ 128 µg/mL)	472 µM (≈ 256 µg/mL)	118 µM (≈ 64.1 µg/mL)	118 µM (≈ 64.1 µg/mL)	118 µM (≈ 64.1 µg/mL)	59 µM (≈ 32 µg/mL)	236 µM (≈ 128 µg/mL)	472 µM (≈ 256 µg/mL)	472 µM (≈ 256 µg/mL)	472 µM (≈ 256 µg/mL)	236 µM (≈ 128 µg/mL)	MIC (Pseudomonas aeruginosa [16]): 118 µM (≈ 64.1 µg/mL); MIC (Pseudomonas aeruginosa [17]): 118 µM (≈ 64.1 µg/mL); MIC (Escherichia coli [18]): 59 µM (≈ 32 µg/mL)
CCOC(=O)C1=C(CN2CCN(C(=O)/C(=N/OC)c3csc(N)n3)CC2)NC(=O)NC1c1ccc(O)c(OC)c1 (configuration not stated)	28 µM (≈ 16.1 µg/mL)	48 µM (≈ 27.5 µg/mL)	95 µM (≈ 54.5 µg/mL)	112 µM (≈ 64.2 µg/mL)	56 µM (≈ 32.1 µg/mL)	56 µM (≈ 32.1 µg/mL)	444 µM (≈ 255 µg/mL)	48 µM (≈ 27.5 µg/mL)	444 µM (≈ 255 µg/mL)	112 µM (≈ 64.2 µg/mL)	444 µM (≈ 255 µg/mL)	95 µM (≈ 54.5 µg/mL)	48 µM (≈ 27.5 µg/mL)	48 µM (≈ 27.5 µg/mL)	56 µM (≈ 32.1 µg/mL)	14 µM (≈ 8.03 µg/mL)	112 µM (≈ 64.2 µg/mL)	444 µM (≈ 255 µg/mL)	112 µM (≈ 64.2 µg/mL)	112 µM (≈ 64.2 µg/mL)	MIC (Pseudomonas aeruginosa [16]): 48 µM (≈ 27.5 µg/mL); MIC (Pseudomonas aeruginosa [17]): 95 µM (≈ 54.5 µg/mL); MIC (Escherichia coli [18]): 48 µM (≈ 27.5 µg/mL)
CCOC(=O)C1=C(CN2CCN(C(=O)/C(=N/OC)c3csc(N)n3)CC2)NC(=O)NC1c1cccc(O)c1 (configuration not stated)	59 µM (≈ 32.1 µg/mL)	59 µM (≈ 32.1 µg/mL)	117 µM (≈ 63.6 µg/mL)	118 µM (≈ 64.1 µg/mL)	59 µM (≈ 32.1 µg/mL)	59 µM (≈ 32.1 µg/mL)	430 µM (≈ 234 µg/mL)	59 µM (≈ 32.1 µg/mL)	7 µM (≈ 3.81 µg/mL)	15 µM (≈ 8.15 µg/mL)	430 µM (≈ 234 µg/mL)	59 µM (≈ 32.1 µg/mL)	15 µM (≈ 8.15 µg/mL)	59 µM (≈ 32.1 µg/mL)	118 µM (≈ 64.1 µg/mL)	15 µM (≈ 8.15 µg/mL)	118 µM (≈ 64.1 µg/mL)	430 µM (≈ 234 µg/mL)	236 µM (≈ 128 µg/mL)	59 µM (≈ 32.1 µg/mL)	MIC (Pseudomonas aeruginosa [16]): 59 µM (≈ 32.1 µg/mL); MIC (Pseudomonas aeruginosa [17]): 59 µM (≈ 32.1 µg/mL); MIC (Escherichia coli [18]): 59 µM (≈ 32.1 µg/mL)
CCOC(=O)C1=C(CN2CCN(C(=O)/C(=N/OC)c3csc(N)n3)CC2)NC(=O)NC1c1ccc(O)c(Br)c1 (configuration not stated)	26 µM (≈ 16.2 µg/mL)	52 µM (≈ 32.4 µg/mL)	103 µM (≈ 64.1 µg/mL)	103 µM (≈ 64.1 µg/mL)	52 µM (≈ 32.4 µg/mL)	52 µM (≈ 32.4 µg/mL)	415 µM (≈ 258 µg/mL)	52 µM (≈ 32.4 µg/mL)	104 µM (≈ 64.7 µg/mL)	52 µM (≈ 32.4 µg/mL)	415 µM (≈ 258 µg/mL)	52 µM (≈ 32.4 µg/mL)	26 µM (≈ 16.2 µg/mL)	52 µM (≈ 32.4 µg/mL)	26 µM (≈ 16.2 µg/mL)	13 µM (≈ 8.09 µg/mL)	103 µM (≈ 64.1 µg/mL)	415 µM (≈ 258 µg/mL)	103 µM (≈ 64.1 µg/mL)	52 µM (≈ 32.4 µg/mL)	MIC (Pseudomonas aeruginosa [16]): 52 µM (≈ 32.4 µg/mL); MIC (Pseudomonas aeruginosa [17]): 103 µM (≈ 64.1 µg/mL); MIC (Escherichia coli [18]): 52 µM (≈ 32.4 µg/mL)
